Laboratory results taken from patent US12096772B2, “Herbicidal compositions” (SYNGENTA CROP PROTECTION AG, priority 2022, dated 2024).

Tested on: Amaranthus palmeri (AMAPA)
Experiment: Post-emergence greenhouse percent control of Amaranthus palmeri
Format: in vivo
Details: herbicide alone; for Observed control 7DAA: 7 days after application; for Observed control 14DAA: 14 days after application; for Observed control 21DAA: 21 days after application
Description: Seeds of Amaranthus palmeri (AMAPA) were sown in vero beach potting soil and grown in a greenhouse. The herbicides, alone and in combination, were applied post-emergence when the weeds were 3 to 4-inches along with adjuvants 2.5% v/v AMSOL® and 1% v/v AgriDex® using a spray TT110015 nozzle providing 15 gallons/acre. Percent control evaluations were performed at 7, 14, and 21 days after application.
Expected action was calculated by the Colby formula.

`CS(=O)(=O)c1ccc(C(=O)C2C(=O)CCCC2=O)c([N+](=O)[O-])c1` [Mesotrione, mesotrione] was tested, and the “Observed control 7DAA” value (10 g ai/ha) was 75%, the “Observed control 14DAA” value (10 g ai/ha) was 63% and the “Observed control 21DAA” value (10 g ai/ha) was 62%.
For `O=c1cc(Cl)[nH]nc1-c1ccccc1` [Pyridafol, pyridafol], the “Observed control 7DAA” value (2.5 g ai/ha) was 0%, the “Observed control 14DAA” value (2.5 g ai/ha) was 0% and the “Observed control 21DAA” value (2.5 g ai/ha) was 0%. For the same molecule, the “Observed control 7DAA” value (5 g ai/ha) was 0%, the “Observed control 14DAA” value (5 g ai/ha) was 0% and the “Observed control 21DAA” value (5 g ai/ha) was 0%. For the same molecule, the “Observed control 7DAA” value (10 g ai/ha) was 0%, the “Observed control 14DAA” value (10 g ai/ha) was 0% and the “Observed control 21DAA” value (10 g ai/ha) was 0%. For the same molecule, the “Observed control 7DAA” value (27 g ai/ha) was 5%, the “Observed control 14DAA” value (27 g ai/ha) was 2% and the “Observed control 21DAA” value (27 g ai/ha) was 0%. For the same molecule, the “Observed control 7DAA” value (57 g ai/ha) was 17%, the “Observed control 14DAA” value (57 g ai/ha) was 10% and the “Observed control 21DAA” value (57 g ai/ha) was 3%. For the same molecule, the “Observed control 7DAA” value (87 g ai/ha) was 23%, the “Observed control 14DAA” value (87 g ai/ha) was 15% and the “Observed control 21DAA” value (87 g ai/ha) was 13%. The “Observed control 7DAA” value (117 g ai/ha) was 23%, the “Observed control 14DAA” value (117 g ai/ha) was 17% and the “Observed control 21DAA” value (117 g ai/ha) was 7%.
For bicyclopyrone, the “Observed control 7DAA” value (10 g ai/ha) was 72%, the “Observed control 14DAA” value (10 g ai/ha) was 60% and the “Observed control 21DAA” value (10 g ai/ha) was 57%.
